This test can be described thus: Cytotoxicity against human WHCO1 cells after 48 hrs by MTT assay. The note with it: WHCO1, 48 h. The test is classed as functional, cell-based.

Where only a bound is given, the exact number is not on record here.

The values below come from ChEMBL document CHEMBL1158728, “Makaluvic acids from the South African latrunculid sponge Strongylodesma aliwaliensis” (J Nat Prod, 2005).

The IC50 is the concentration that gives 50% inhibition. A higher IC50 goes with a need for much substance.

`O=C1C=C2NCCc3c[nH]c(c32)C1=O` [DAMIRONE C] returned an IC50 of 56 µM. In other words, the double-digit micromolar range.
`O=C1C(N/C=C/c2ccc(O)cc2)=CC2=NCCc3c[nH]c1c32` [MAKALUVAMINE M] registered a half-maximal inhibitory concentration (IC50) of 0.7 µM.
With `O=C(O)c1[nH]cc2c1C(=O)NCC2` [MAKALUVIC ACID C] the figure was above 150 µM; with `NC1=CC2=NCCc3cn([C@@H]4O[C@H](CO)[C@@H](O)[C@H]4O)c(c32)C1=O`, 1.6 µM.
Take `O=C1C=C2NCCc3cn([C@@H]4O[C@H](CO)[C@@H](O)[C@H]4O)c(c32)C1=O`: the midpoint of inhibition, the IC50, lay at 38 µM. Against the preceding compound, the IC50 is about 24-fold higher.
With `O=C1NCCc2cn([C@@H]3O[C@H](CO)[C@@H](O)[C@H]3O)c(C(=O)O)c21`, 61 µM corresponded to half-maximal inhibition (IC50).
